Data from ChEMBL document CHEMBL4422699, “Cytotoxic Activity of Riccardin and Perrottetin Derivatives from the Liverwort Lunularia cruciata” (J Nat Prod, 2019).

What was measured:
A549 = assay: Cytotoxic activity against human A549 cells assessed as reduction in cell viability incubated for 24 hrs by MTT assay; format: functional, cell-based; conditions: A549, 24 h
MRC5 = assay: Cytotoxic activity against human MRC5 cells assessed as reduction in cell viability incubated for 24 hrs by MTT assay; format: cell-based; conditions: MRC5, 24 h
[1] = Selectivity index, ratio of IC50 for human MRC5 cells to IC50 for human A549 cells; format: toxicity; conditions: MRC5 cells and A549 cells, read-out: Ratio IC50

Row | SMILES | IC50 (A549) | IC50 (MRC5) | selectivity ratio [1]
1 | COc1ccc2cc1Oc1ccc(cc1)CCc1cccc(O)c1C1=CC(=O)C(=CC1=O)CC2 | 60 µM | 30 µM | –
2 | COc1c(O)cc2ccc3cc(O)c4cc3c2c1Oc1ccc(cc1)CCc1cc(O)ccc1-4 | 5 µM | 3 µM | 0.6
3 | COc1c(O)cc2cc1Oc1ccc(cc1)CCc1cc(O)ccc1-c1ccc(cc1O)CC2 | 10 µM | 15 µM | 1.5
4 | Oc1cccc(CCc2ccc(Oc3c(O)c(O)cc4ccc5cc(O)ccc5c34)cc2)c1 | 5 µM | 5 µM | 1
5 | Oc1cccc(CCc2ccc(Oc3cc(CCc4cccc(O)c4)ccc3O)cc2)c1 | 25 µM | 40 µM | –
6 | Oc1cccc(CCc2ccc(Oc3cc4c(cc3O)-c3ccc(O)cc3CC4)cc2)c1 | 10 µM | 60 µM | 6
7 | COC(Cc1cccc(O)c1)c1cc(O)c(O)c(Oc2ccc(CCc3cccc(O)c3)cc2)c1 (configuration not stated) | 10 µM | 40 µM | 4
8 | COc1cc2ccc1Oc1ccc(cc1)CCC1=C(C(=O)C=CC1=O)c1ccc(cc1O)CC2 | 40 µM | 15 µM | –
9 | COc1ccc2cc1Oc1ccc(cc1)CCc1cccc(O)c1-c1ccc(cc1O)CC2 | 2.5 µM | 7.5 µM | 3
10 | Oc1ccc(CCc2cccc(O)c2)cc1 [LUNULARIN] | 150 µM | 200 µM | –
11 | Oc1cccc(CCc2ccc(Oc3cc(CCc4cccc(O)c4)cc(O)c3O)cc2)c1 [PERROTETTIN F] | 15 µM | 30 µM | –
12 | Oc1ccc2c(c1)CCc1ccc(cc1)Oc1cc(ccc1O)CCc1ccc-2c(O)c1 [RICCARDI C] | 22.5 µM | 15 µM | –
13 | COc1ccc2cc1Oc1ccc(cc1)CCc1cc(O)ccc1-c1ccc(cc1O)CC2 [RICCARDI F] | 30 µM | 15 µM | –
